One experiment addresses T1, SARS-CoV-2 3CLpro (Severe acute respiratory syndrome coronavirus 2, UniProt P0DTD1).
T1 construct: containing 0.25 μM SARS-CoV-2 3CLpro
The experiment in a line: Real-time FRET protease assay with SARS-CoV-2 3CLpro and dose-response curve analysis. Format: biochemical.
Settings: not given
The term IC50 denotes the concentration needed to halve the response being measured. In the case of `CC1=CCC(C(C)(C)O)C[C@@H]1O` (stereo partly drawn) [ARH013-DS1, trans-p-menth-6-ene-2,8-diol], the IC50 came out at 32.9 µM.

The experiment is the same for the next values; noted with them: Real-Time; 0-100 μM, pre-incubated 1 h at 37° C. with 0.25 μM 3CLpro; read-out: IC50 (μM), inhibition of SARS-CoV-2 3CLpro (Real-Time).
Regarding `O=c1cc(O)oc(/C=C/c2ccc(O)c(O)c2)c1` [ARH 019-DS2, 2-[(E)-2-(3,4-dihydroxyphenyl)ethenyl]-6-hydroxypyran-4-one], the half-maximal inhibitory concentration (IC50) turned out to be 2.49 µM.

On to `CC(=O)O[C@@H]1[C@@H](O)[C@@H](OC(C)=O)[C@H](Oc2c(-c3ccc(O)cc3)oc3cc(O)cc(O)c3c2=O)O[C@H]1C` [ARH 007-DS5, kaempferol-3-O-(2,4-O-diacetyl-Alpha-L-rhamnopyranoside)], for which the IC50 amounted to 48.2 µM.

Consider `CC1(C)CCC[C@@]2(C)Oc3c(O)ccc(-c4oc5cc(O)cc(O)c5c(=O)c4O)c3C[C@@H]12` [ARH 020-DS2, ugonin N], for which the IC50 worked out at 6.33 µM.

As to `C=C1CCCC(C)(C)C1Cc1c(O)cc2oc(-c3ccc(O)c(O)c3)cc(=O)c2c1O` (stereo not drawn) [ARH 020-DS1, ugonin J], the 50% inhibitory concentration (IC50) was found to be 14.9 µM.

For `CC(=O)/C=C(O)/C=C/c1ccc(O)c(O)c1` [ARH 019-DS1, 6-(3,4-dihydroxyphenyl)-4-hydroxyhexa-3,5-dien-2-one], the IC50 was 19.2 µM.

For `CC(=O)O[C@@H]1[C@@H](OC(C)=O)[C@@H](O)[C@H](Oc2c(-c3ccc(O)cc3)oc3cc(O)cc(O)c3c2=O)O[C@H]1C` [ARH 007-DS4, kaempferol-3-O-(3,4-O-diacetyl-Alpha-L-rhamnopyranoside)], the half-maximal inhibitory concentration (IC50) is 18.8 µM.

In a further experiment the target is T2, sodium taurocholate cotransporting polypeptide (NTCP) (Homo sapiens, UniProt Q14973).
T2 construct: expressed in transfected cells; host or cells: Huh7 (NTCP); E. coli BL21(DE3) (GST fusion bait)
T2 sequence (Q14973 1-349): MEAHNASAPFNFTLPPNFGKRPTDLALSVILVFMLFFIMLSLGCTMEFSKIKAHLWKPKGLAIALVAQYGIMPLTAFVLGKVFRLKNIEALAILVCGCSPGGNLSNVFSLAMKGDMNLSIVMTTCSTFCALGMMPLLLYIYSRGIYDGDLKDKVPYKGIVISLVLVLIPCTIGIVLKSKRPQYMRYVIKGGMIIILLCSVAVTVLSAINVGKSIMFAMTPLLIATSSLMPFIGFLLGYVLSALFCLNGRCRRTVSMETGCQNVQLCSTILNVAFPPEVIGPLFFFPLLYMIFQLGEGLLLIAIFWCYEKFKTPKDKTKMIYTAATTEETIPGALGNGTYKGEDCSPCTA
In words: PreS1-NTCP pull down assay. Format: binding. The settings on record: 0, 10, 20 and 100 μM. As to the method: Expression and purification of recombinant fusion proteins and the GST pull-down assay were performed as described previously. Briefly, expression of GST fusion proteins in E. coli BL21(DE3) was induced with 0.5 mM isopropyl-β-D-thiogalactopyranoside, then the bacterial cells were lysed by sonication at 4° C. in PBS containing 1% Triton X-100 (PBST) and separated into soluble and insoluble fractions by centrifugation at 13,800 g for 10 min at 4° C. To perform GST pull-down assays, the soluble fraction of bacterial lysates containing GST-fusion proteins was incubated for 3 hours at 4° C. with glutathione-Sepharose 4B beads (GE Healthcare Bio-Sciences), then the beads were washed 3 times with PBST before being incubated at 4° C. overnight with Huh7 cell lysate with overexpressed IA-NTCP prepared by lysis in PBST containing a protease inhibitor cocktail (1 mM PMSF, 10 μg/ml of aprotinin, 1 μg/ml of pepstatin A, 1 μg/ml of leupeptin). The beads were then washed with PBST, resuspended in sample buffer (12.5 mM Tris-HCl, pH 6.8, 2% SDS, 20% glycerol, 0.25% bromphenol blue, 5% b-mercaptoethanol), and subjected to SDS-polyacrylamide gel electrophoresis and examined by Western blot analysis.
To evaluate the effects of inhibitor on inhibiting HBV infection, cell lysis extracted from cells treated with AR101-DS3 or AR101-DS4.
As for `C=C(CC[C@@H](C(=O)O)[C@H]1CC[C@@]2(C)C3=CC[C@H]4C(C)(C)[C@@H](O)CC[C@]4(C)C3=CC[C@]12C)C(C)C` [AR101-DS4], the “amount of NTCP from pull down assay” value was “significant decreased”.

With `C=C(CC[C@@H](C(=O)O)[C@H]1C[C@H](OC(C)=O)[C@@]2(C)C3=C(CC[C@]12C)[C@@]1(C)CC[C@H](O)C(C)(C)[C@@H]1CC3)C(C)C` [AR101-DS3], the “amount of NTCP from pull down assay” value was “dose dependent increase”.

(Values after patent US20230346737A1, “COMPOUNDS AND METHODS FOR PREVENTION AND TREATMENT OF VIRUS INFECTIONS” (priority 2020, published 2023).)
